For one assay, the target named is BRD4 BD2 protein (Homo sapiens (Human), UniProt O60885). Put plainly: Fluorescence polarization binding affinity (Ki) with BRD4 BD2 protein. The arrangement: BRD4 BD2 Ki: reference not given here. The settings on record: fluorescence polarization; Ki calculated from IC50.
The target in a further assay is BRD4 BD1 protein (Homo sapiens (Human), UniProt O60885). In words: Fluorescence polarization binding affinity (Ki) with BRD4 BD1 protein. The settings on record: fluorescence polarization; Ki calculated from IC50.
In assay [1] the test system is multiple myeloma MM.1S cell line. Put plainly: Cell viability (CCK-8), multiple myeloma MM.1S. The class given is cell-based. The settings on record: Homo sapiens, MM1.S, 96 h, MM.1S cells, 4 days, CCK-8, 50% inhibition of cell growth. A digest of the protocol: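 Cells (about 3000-5000 per well) exposed to 3-fold serial dilutions of compound for 4 days at 37° C, 5% CO2. CCK-8 added 2-4 h, absorbance at 450 nm, viability normalised to untreated cells after medium-only blank subtraction; IC50 is concentration giving 50% growth inhibition.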

The test system of assay [2] is leukemia MV4-11 cell line. In words: Cell viability (CCK-8), leukemia MV4-11. The assay is classed as cell-based. To be noted: Homo sapiens, 96 h; MV4-11 cells, 4 days, CCK-8, 50% inhibition of cell growth. On the procedure: (§1) 3. Determination of cell viability of the compound
(§2) The sample to be tested was dissolved with 100% dimethyl sulfoxide to prepare a 20 mM stock solution of the compound, which was diluted with 100% dimethyl sulfoxide to the highest compound concentration required for the experiment (2.5 mM).
(§3) First, 145 uL of a complete cell culture medium was added to wells B1-G1 of a 96-well flat-bottomed tansparent cell culture plate, and 100 uL of the complete medium was added to wells B2-G12, respectively. Then, 5 uL of the 2.5 mM solution of the compound was added to wells B1-D1 and E1-G1 respectively, and then diluted gradiently by 3-folds to B12-D12 and E12-G12 in sequence. Finally, 50 uL of the solution of the cells to be tested was added to each well, with about 3000-5000 cells per well, and a total volume of 150 uL per well.
(§4) In the experiment, in addition to the tested compound, two other control groups were set up: 1) a control group adding the cells and the complete medium, but without adding the compound; 2) a control group adding the complete medium only, without adding the cells and the compound. The 96-well plate was placed in a 37° C. cell culture incubator containing 5% carbon dioxide for 4 days, added with 15 uL of a CCK-8 reagent per well, and then incubated at 37° C. for 2-4 hours. The 96-well plate was read on a TECAN microplate reader, and the absorbance value at 450 nm wavelength was taken.
(§5) The effect of different concentrations of the compound on cell viability was calculated by the following equation: [absorption value of the experimental group−absorption value of pure cell culture medium without the cells or the compound]/[absorption value of the control group with the tumor cells but no testing compound−absorption value of pure cell culture medium without the cell or the compound]×100%.
(§6) The above data were precessed by software, and the IC50 value was the concentration of the compound corresponding to the 50% inhibition rate of cell growth.
(§7) Based on the above test method of the compound on cell viability, a variety of […] cancer cell lines were tested, using multiple myeloma MM.1S, breast cancer MDA-MB-231 and leukemia MV4-11 cell lines as exemples. Using this test method, the IC50 values of partial compounds in the examples of the present invention measured in multiple myeloma MM.1S, breast cancer MDA-MB-231 cell lines and leukemia MV4-11 cell lines were shown in Table 2.

Assay [3] relates to breast cancer MDA-MB-231 cell line. Put plainly: Cell viability (CCK-8), breast cancer MDA-MB-231. The class given is cell-based. To be noted: Homo sapiens, 96 h; MDA-MB-231 cells, 4 days, CCK-8, 50% inhibition of cell growth. Here is the method: as §1, §2, §3, §4, §5, §6, §7

Where “and” joins values, the source holds several entries; their conditions need not be identical. Identical values can stand only once. Where only a bound is given, the exact number is not on record here.

On to `CCN1CC=C(c2ccc3c(c2)C(Nc2cccc(Cl)c2)CCn2nnc(C)c2-3)CC1` (centres unmarked) [BH36, N-(3-chlorophenyl)-9-(1-ethyl-1,2,3,6-tetrahydropyridin-4-yl)-1-methyl-6,7-dihydro-5H-benzo[c][1,2,3]triazolo[1,5-a]azepin-7-amine 2,2,2-trifluoroacetate], for which the Ki – broadly, the equilibrium dissociation constant of an inhibitor or competing ligand from its target – at BRD4 BD2 protein is 13.8 nM and 16 nM; on BRD4 BD1 protein, 717 nM and 1400 nM. The values for the IC50 in assay [1] and in assay [2] were 146 nM and 57.5 nM, respectively.

Regarding `Cc1nnn2c1-c1ccc(C3=CCN(C4CCCCC4)CC3)cc1C(Nc1cccc(Cl)c1)CC2` (centres unmarked) [BH104, N-(3-chlorophenyl)-9-(1-cyclohexyl-1,2,3,6-tetrahydropyridin-4-yl)-1-methyl-6,7-dihydro-5H-benzo[c][1,2,3]triazolo[1,5-a]azepin-7-amine 2,2,2-trifluoroacetate], the Ki on BRD4 BD2 protein is 13.4 nM; at BRD4 BD1 protein it was 710 nM. Besides, the IC50 (usually the concentration at which inhibition is half-maximal) came to 119 nM in assay [1] and 1.32 nM in assay [2].

As to `Cc1nnn2c1-c1ccc(C3=CCN(C4CCC4)CC3)cc1C(Nc1cccc(Cl)c1)CC2` (centres unmarked) [BH159, N-(3-chlorophenyl)-9-(1-cyclobutyl-1,2,3,6-tetrahydropyridin-4-yl)-1-methyl-6,7-dihydro-5H-benzo[c][1,2,3]triazolo[1,5-a]azepin-7-amine 2,2,2-trifluoroacetate], the Ki is 9.31 nM on BRD4 BD2 protein and 879 nM at BRD4 BD1 protein. In addition, the figures for the IC50 in assay [1] and in assay [2] were 285 nM and 75.2 nM, respectively.

As to `Cc1nnn2c1-c1ccc(C3=CCN(C4CCCCC4)CC3)cc1C(Nc1cc(Cl)ccc1F)CC2` (centres unmarked) [BH187, N-(5-chloro-2-fluorophenyl)-9-(1-cyclohexyl-1,2,3,6-tetrahydropyridin-4-yl)-1-methyl-6,7-dihydro-5H-benzo[c][1,2,3]triazolo[1,5-a]azepin-7-amine 2,2,2-trifluoroacetate], the Ki is 28.8 nM on BRD4 BD2 protein and 1720 nM at BRD4 BD1 protein. Further, the IC50 amounted to 1300 nM in assay [1] and 106 nM in assay [2].

In the case of `Cc1nnn2c1-c1ccc(C3=CCN(C4CCCC4)CC3)cc1C(Nc1cc(Cl)ccc1F)CC2` (centres unmarked) [BH190, N-(5-chloro-2-fluorophenyl)-9-(1-cyclopentyl-1,2,3,6-tetrahydropyridin-4-yl)-1-methyl-6,7-dihydro-5H-benzo[c][1,2,3]triazolo[1,5-a]azepin-7-amine 2,2,2-trifluoroacetate], the Ki is 12.9 nM and 27.9 nM on BRD4 BD2 protein; 1620 nM at BRD4 BD1 protein. Besides, the IC50 worked out at 248 nM in assay [1] and 62.8 nM in assay [2].

`CC(=O)N1CC=C(c2ccc3c(c2)C(Nc2cc(Cl)ccc2F)CCn2nnc(C)c2-3)CC1` (centres unmarked) [BH192, 1-(4-(7-((5-chloro-2-fluorophenyl)amino)-1-methyl-6,7-dihydro-5H-benzo[c][1,2,3]triazolo[1,5-a]azepin-9-yl)-3,6-dihydropyridin-1 (2H)-yl)ethan-1-one]: the Ki on BRD4 BD2 protein is 3.45 nM; on BRD4 BD1 protein, 106 nM. The values for the 50% inhibitory concentration (IC50) in assay [1] and in assay [2] were 6.15 nM and 0.21 nM, respectively.

Regarding `COc1ccc2c(c1)C(Nc1ccc(C#N)cc1)CCc1onc(C)c1-2` (centres unmarked) [FA06, 4-(8-methoxy-1-methyl-5,6-dihydro-4H-benzo[6,7]cyclohepta[1,2-d]isoxazol-6-yl)aminobenzonitrile], the figures for the Ki at BRD4 BD2 protein and on BRD4 BD1 protein were 55.9 nM and 83.1 nM, respectively. The values for the IC50 in assay [3] and in assay [1] were 89 nM and 6.05 nM, respectively.

On to `Cc1nnn2c1-c1ccc(-c3cnn(C)c3)cc1C(Nc1ccccc1N(C)C)CC2` (centres unmarked) [LB01, N^1,N^1-dimethyl-N^2-(1-methyl-9-(1-methyl-1H-pyrazol-4-yl)-6,7-dihydro-5H-benzo[c][1,2,3]triazolo[1,5-a]azepin-7-yl)benzene-1,2-diamine], for which the Ki at BRD4 BD2 protein is 26.9 nM; on BRD4 BD1 protein it was 94.8 nM. For the same compound, the 50% inhibitory concentration (IC50) in assay [3] was found to be 450 nM; in assay [1], 4.28 nM.

Take `COC(=O)c1ccc(NC2CCn3nnc(C)c3-c3ccc(-c4cnn(C)c4)cc32)cc1` (centres unmarked) [LB37, methyl 4-((1-methyl-9-(1-methyl-1H-pyrazol-4-yl)-6,7-dihydro-5H-benzo[c][1,2,3]triazolo[1,5-a]azepin-7-yl)amino)benzoate]: the inhibitory constant (Ki) at BRD4 BD2 protein was 10.9 nM; at BRD4 BD1 protein it was 45 nM. The IC50 came out at 43 nM in assay [3] and 2.03 nM in assay [1].

As for `Cc1nnn2c1-c1ccc(-c3cnn(C)c3)cc1C(Nc1cccc(CO)c1)CC2` (centres unmarked) [LB164, (3-((1-methyl-9-(1-methyl-1H-pyrazol-4-yl)-6,7-dihydro-5H-benzo[c][1,2,3]triazolo[1,5-a]azepin-7-yl)amino)phenyl)methanol], the Ki on BRD4 BD2 protein was 12.7 nM; on BRD4 BD1 protein it was 95.7 nM. The figures for the IC50 in assay [1] and in assay [2] were 26 nM and 39.3 nM, respectively.

For `Cc1nnn2c1-c1ccc(-c3cnn(C)c3)cc1C(Nc1ccccc1CO)CC2` (centres unmarked) [LB192, (2-((1-methyl-9-(1-methyl-1H-pyrazol-4-yl)-6,7-dihydro-5H-benzo[c][1,2,3]triazolo[1,5-a]azepin-7-yl)amino)phenyl)methanol], the Ki at BRD4 BD2 protein was 16.1 nM; at BRD4 BD1 protein, 94.6 nM. Also, the IC50 in assay [1] is less than 1 nM; in assay [2], less than 0.1 nM.

As for `CNC(=O)Cc1cccc(NC2CCn3nnc(C)c3-c3ccc(-c4cnn(C)c4)cc32)c1` (centres unmarked) [LC10, N-methyl-2-(3-((1-methyl-9-(1-methyl-1H-pyrazol-4-yl)-6,7-dihydro-5H-benzo[c][1,2,3]triazolo[1,5-a]azepin-7-yl)amino)phenyl)acetamide], the “BRD4 BD2 Ki” value on BRD4 BD2 protein is listed as “<Kd”. Besides, the Ki at BRD4 BD1 protein is 69.3 nM. Besides, the values for the IC50 in assay [1] and in assay [2] were 104 nM and 12.8 nM, respectively.

For `CNC(=O)Cc1ccccc1NC1CCn2nnc(C)c2-c2ccc(-c3cnn(C)c3)cc21` (centres unmarked) [LC11, N-methyl-2-(2-((1-methyl-9-(1-methyl-1H-pyrazol-4-yl)-6,7-dihydro-5H-benzo[c][1,2,3]triazolo[1,5-a]azepin-7-yl)amino)phenyl)acetamide], on BRD4 BD2 protein, the “BRD4 BD2 Ki” value was “<Kd”. Further, at BRD4 BD1 protein, the Ki is 7.8 nM. Also, the IC50 was determined as 25.2 nM in assay [1] and 15.4 nM in assay [2].

Turning to `CCN1CC=C(c2ccc3c(c2)C(Nc2ccc(Cl)cc2)CCn2nnc(C)c2-3)CC1` (centres unmarked) [LD23, N-(4-chlorophenyl)-9-(1-ethyl-1,2,3,6-tetrahydropyridin-4-yl)-1-methyl-6,7-dihydro-5H-benzo[c][1,2,3]triazolo[1,5-a]azepin-7-amine 2,2,2-trifluoroacetate], the Ki on BRD4 BD2 protein was 41.5 nM; on BRD4 BD1 protein it was 334 nM. Further, the IC50 in assay [1] was determined as 443 nM; in assay [2], 7.32 nM.

As for `Cc1nnn2c1-c1ccc(C3=CCN(C(C)C)CC3)cc1C(Nc1ccc(Cl)cc1)CC2` (centres unmarked) [LD24, N-(4-chlorophenyl)-9-(1-isopropyl-1,2,3,6-tetrahydropyridin-4-yl)-1-methyl-6,7-dihydro-5H-benzo[c][1,2,3]triazolo[1,5-a]azepin-7-amine 2,2,2-trifluoroacetate], the Ki at BRD4 BD2 protein is 21.6 nM; on BRD4 BD1 protein it was 293 nM. Also, the figures for the IC50 in assay [1] and in assay [2] were 447 nM and 19 nM, respectively.

Take `Cc1nnn2c1-c1ccc(C3=CCN(C4CCCCC4)CC3)cc1C(Nc1ccc(F)c(Cl)c1)CC2` (centres unmarked) [LD76, N-(3-chloro-4-fluorophenyl)-9-(1-cyclohexyl-1,2,3,6-tetrahydropyridin-4-yl)-1-methyl-6,7-dihydro-5H-benzo[c][1,2,3]triazolo[1,5-a]azepin-7-amine 2,2,2-trifluoroacetate]: the Ki at BRD4 BD2 protein is 10.7 nM and 36.1 nM; at BRD4 BD1 protein, 1060 nM. In addition, the IC50 in assay [1] amounted to 879 nM; in assay [2], 106 nM.

Take `Cc1nnn2c1-c1ccc(C3=CCN(C(C)C)CC3)cc1[C@H](Nc1cccc(Cl)c1)CC2` [RE13 (R), (7R)—N-(3-chlorophenyl)-9-(1-isopropyl-1,2,3,6-tetrahydropyridin-4-yl)-1-methyl-6,7-dihydro-5H-benzo[c][1,2,3]triazolo[1,5-a]azepin-7-amine 2,2,2-trifluoroacetate]: the figures for the inhibition constant (Ki) on BRD4 BD2 protein and on BRD4 BD1 protein were 14.8 nM and 1420 nM, respectively. In addition, the results for the IC50 in assay [1] and in assay [2] were 546 nM and 126 nM, respectively.
